According to US20020137929A1, “1 - (3-heterocyclylphenyl) isothiourea, -isourea, -guanidine and -amidine herbicidal agents” (Intellectual Property Department, BASF Aktiengesellschaft, priority 1998, published 2002):

How the values were obtained:
[1] = system: AMBEL (Ragweed, Common); test: Postemergence herbicidal evaluation; type: in vivo, Ambrosia artemisifolia; details: for AMBEL herbicidal rating: postemergence
Summary of the method: (§1)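 Two-week seedlings sprayed postemergence at 40 psi; formulation: 1:1 acetone/water, 0.5% TWEEN 20; application ≈0.0156–0.500 kg/ha. Greenhouse grow-out, then 0–9 visual scoring at 4–5 weeks.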

[2] = system: GALAP (Galium); test: Postemergence herbicidal evaluation; type: in vivo, Galium aparine; details: for GALAP herbicidal rating: postemergence
Summary of the method: as §1

[3] = system: TRZAWR (Wheat, Winter, cv Riband); test: Postemergence herbicidal evaluation; type: in vivo, Triticum aestivum; details: for TRZAWR herbicidal rating: postemergence
Summary of the method: as §1

[4] = system: CHEAL (Lambsquarters, Common); test: Preemergence herbicidal evaluation; type: in vivo, Chenopodium album; details: rated 4-5 weeks after treatment
Summary of the method: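 Rating at 4–5 wk post-spray on a 0–9 visual scale vs control. Application: aqueous acetone, ~0.0156–0.500 kg/ha, to soil surface after seeding, preemergence.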

[5] = system: ORYSAT (Rice, Tebonnet); test: Rice tolerance to post-transplant applications, flooded paddy conditions (Table III); type: in vivo, Oryza sativa, (L.) Tebonnet
Summary of the method: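 Two ten-day-old Tebonnet seedlings transplanted into flooded silt loam (water 1.5 to 3 cm above soil); three days later the water surface was treated with compound in aqueous/acetone 50/50 at about 0.0313 to 0.500 kg/ha. Visual 0-9 injury rating versus control after three to four weeks in greenhouse.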

[6] = system: MOOVA (Monochoria); test: Postemergence weed control under flooded paddy conditions; type: in vivo, Monochoria vaginalis; details: postemergence weeds, 3-4 weeks after treatment
Summary of the method: (§2)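 Containers holding 3–5 cm weeds and rice at 1.5–2.5 leaves are flooded to 1.5–3 cm above soil. Compound in 50/50 v/v aqueous/acetone is then added directly to the water, about 0.0313–0.500 kg/ha. Plants are kept in the greenhouse and rated 0–9 visually at 3–4 weeks.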

[7] = system: SAGPY (Arrowhead (Pygmaea)); test: as above; type: in vivo, Sagittaria pygmaea; details: postemergence weeds, 3-4 weeks after treatment
Summary of the method: as §2

[8] = system: ORYSAT (Rice, Tebonnet); test: Rice tolerance to post-transplant applications, flooded paddy conditions (Table IV); type: in vivo, Oryza sativa, (L.) Tebonnet
Text: Results of herbicide evaluation are expressed on a rating scale (0-9). The scale is based upon a visual observation of plant stand, vigor, malformation, size, chlorosis and overall plant appearance as compared with a control.
Plastic containers containing weeds which are 3 to 5 cm tall and rice seedlings at the 1.5 to 2.5 leaf stage are flooded with water. The water is maintained at 1.5 to 3 cm above the soil surface for the duration of the experiment. Test compounds are applied as aqueous/ acetone mixtures 50/50 v/v directly into the flood water to provide the equivalent of about 0.0313 to 0.500 kg/ha of active ingredient. The treated containers are placed on greenhouse benches and cared for in accordance with conventional greenhouse procedures. Three to four weeks after treatment, the test is terminated and each container is examined and herbicidal effect rated according to the rating system provided in Example 37. The compounds evaluated are reported by compound number given in Example 37.

## CCOC(=O)CN1C(=O)C(=C(C)C)S/C1=N/c1cc(-n2c(=O)cc(C(F)(F)F)n(C)c2=O)c(F)cc1Cl [Compound 20, Ethyl 2-{{2-chloro-5-[3,6-dihydro-3-methyl-2,6-dioxo-4-(trifluoromethyl)-1(2H)-pyrimidinyl]-4-fluorophenyl}imino}-5-isopropylidene-4-oxo-3-thiazolidineacetate]
[1]; rate 0.0158 kg/ha
  AMBEL herbicidal rating: 4.0
[1]; rate 0.0315 kg/ha
  AMBEL herbicidal rating: 5.0
[1]; rate 0.0630 kg/ha
  AMBEL herbicidal rating: 6.0
[2]; rate 0.0158 kg/ha
  GALAP herbicidal rating: 1.0
[2]; rate 0.0315 kg/ha
  GALAP herbicidal rating: 2.0
[2]; rate 0.0630 kg/ha
  GALAP herbicidal rating: 6.0
[3]; rate 0.0158 kg/ha
  TRZAWR herbicidal rating: 3.5
[3]; rate 0.0315 kg/ha
  TRZAWR herbicidal rating: 4.0
[3]; rate 0.0630 kg/ha
  TRZAWR herbicidal rating: 4.0
[4]; rate 0.0625 kg/ha
  CHEAL preemergence herbicidal rating: 9.0
[4]; rate 0.1250 kg/ha
  CHEAL preemergence herbicidal rating: 9.0
[4]; rate 0.2500 kg/ha
  CHEAL preemergence herbicidal rating: 9.0
[5]; in vivo
  Herbicidal rating ORYSAT (rice tolerance): 2.0
[6]; rate 0.1160 kg/ha
  Herbicidal rating MOOVA: 9.0
[6]; rate 0.2310 kg/ha
  Herbicidal rating MOOVA: 9.0
[6]; rate 0.4630 kg/ha
  Herbicidal rating MOOVA: 9.0
[7]; rate 0.1160 kg/ha
  Herbicidal rating SAGPY: 0.0
[7]; rate 0.2310 kg/ha
  Herbicidal rating SAGPY: 0.0
[7]; rate 0.4630 kg/ha
  Herbicidal rating SAGPY: 3.0
[8]; in vivo
  Herbicidal rating ORYSAT (rice tolerance): 2.0

## CCOC(=O)COc1ccccc1CC1S/C(=N/c2cc(-n3c(=O)cc(C(F)(F)F)n(C)c3=O)c(F)cc2Cl)N(CC(=O)OCC)C1=O (stereo not shown) [Compound 42, 2-{{2-Chloro-5-[3,6-dihydro-3-methyl-2,6-dioxo-4-(trifluoromethyl)-1(2H)-pyrimidinyl]-4-fluoro-phenyl}imino}-5-(o-hydroxybenzyl)-4-oxo-3-thiazolidineacetic acid, ethyl ester, ester with ethyl glycolate]
[1]; Rate 0.0158 kg/ha
  Postemergence herbicidal rating AMBEL: 9.0
[1]; Rate 0.0315 kg/ha
  Postemergence herbicidal rating AMBEL: 9.0
[1]; Rate 0.0630 kg/ha
  Postemergence herbicidal rating AMBEL: 9.0
[2]; Rate 0.0158 kg/ha
  Postemergence herbicidal rating GALAP: 1.0
[2]; Rate 0.0315 kg/ha
  Postemergence herbicidal rating GALAP: 3.0
[2]; Rate 0.0630 kg/ha
  Postemergence herbicidal rating GALAP: 3.0
[3]; Rate 0.0158 kg/ha
  Postemergence herbicidal rating TRZAWR: 3.5
[3]; Rate 0.0315 kg/ha
  Postemergence herbicidal rating TRZAWR: 3.5
[3]; Rate 0.0630 kg/ha
  Postemergence herbicidal rating TRZAWR: 3.5
[4]; rate 0.0313 kg/ha
  Preemergence herbicidal rating CHEAL: 0.0
[4]; rate 0.0625 kg/ha
  Preemergence herbicidal rating CHEAL: 1.0
[4]; rate 0.1250 kg/ha
  Preemergence herbicidal rating CHEAL: 3.0
[4]; rate 0.2500 kg/ha
  Preemergence herbicidal rating CHEAL: 9.0
[5]; 0.0313 kg/ha, post-transplant rice, flooded paddy, rated 3-4 weeks after treatment
  Herbicidal rating ORYSAT (rice tolerance): 0.0
[5]; 0.0625 kg/ha, post-transplant rice, flooded paddy, rated 3-4 weeks after treatment
  Herbicidal rating ORYSAT (rice tolerance): 0.0
[5]; 0.1250 kg/ha, post-transplant rice, flooded paddy, rated 3-4 weeks after treatment
  Herbicidal rating ORYSAT (rice tolerance): 0.0
[5]; 0.2500 kg/ha, post-transplant rice, flooded paddy, rated 3-4 weeks after treatment
  Herbicidal rating ORYSAT (rice tolerance): 0.0
[6]; rate 0.0313 kg/ha
  Herbicidal rating MOOVA: 7.0
[6]; rate 0.0625 kg/ha
  Herbicidal rating MOOVA: 9.0
[6]; rate 0.1250 kg/ha
  Herbicidal rating MOOVA: 9.0
[6]; rate 0.2500 kg/ha
  Herbicidal rating MOOVA: 9.0
[7]; rate 0.0313 kg/ha
  Herbicidal rating SAGPY: 0.0
[7]; rate 0.0625 kg/ha
  Herbicidal rating SAGPY: 0.0
[7]; rate 0.1250 kg/ha
  Herbicidal rating SAGPY: 0.0
[7]; rate 0.2500 kg/ha
  Herbicidal rating SAGPY: 3.0
[8]; rate 0.0313 kg/ha, flooded paddy, post-transplant rice, 3-4 weeks after treatment
  Herbicidal rating ORYSAT (rice tolerance): 0.0
[8]; rate 0.0625 kg/ha, flooded paddy, post-transplant rice, 3-4 weeks after treatment
  Herbicidal rating ORYSAT (rice tolerance): 0.0
[8]; rate 0.1250 kg/ha, flooded paddy, post-transplant rice, 3-4 weeks after treatment
  Herbicidal rating ORYSAT (rice tolerance): 0.0
[8]; rate 0.2500 kg/ha, flooded paddy, post-transplant rice, 3-4 weeks after treatment
  Herbicidal rating ORYSAT (rice tolerance): 0.0

## CCOC(=O)CN1C(=O)C(=Cc2ccc(F)cc2)SC1=Nc1cc(-n2c(=O)cc(C(F)(F)F)n(C)c2=O)c(F)cc1Cl [Compound 21, Ethyl 2-{{2-chloro-5-[3,6-dihydro-3-methyl-2,6-dioxo-4-(trifluoromethyl)-1(2H)-pyrimidinyl]-4-fluorophenyl}imino}-5-(p-fluorobenzylidene)-4-oxo-3-thiazolidineacetate]
[1]; rate 0.0158 kg/ha
  AMBEL herbicidal rating: 4.0
[1]; rate 0.0315 kg/ha
  AMBEL herbicidal rating: 4.0
[1]; rate 0.0630 kg/ha
  AMBEL herbicidal rating: 6.0
[2]; rate 0.0158 kg/ha
  GALAP herbicidal rating: 2.0
[2]; rate 0.0315 kg/ha
  GALAP herbicidal rating: 2.0
[2]; rate 0.0630 kg/ha
  GALAP herbicidal rating: 4.0
[3]; rate 0.0158 kg/ha
  TRZAWR herbicidal rating: 2.5
[3]; rate 0.0315 kg/ha
  TRZAWR herbicidal rating: 3.5
[3]; rate 0.0630 kg/ha
  TRZAWR herbicidal rating: 3.5
[4]; rate 0.2500 kg/ha
  CHEAL preemergence herbicidal rating: 9.0
[5]; in vivo
  Herbicidal rating ORYSAT (rice tolerance): 0.0
[6]; rate 0.1160 kg/ha
  Herbicidal rating MOOVA: 0.0
[6]; rate 0.2310 kg/ha
  Herbicidal rating MOOVA: 0.0
[6]; rate 0.4630 kg/ha
  Herbicidal rating MOOVA: 0.0
[7]; rate 0.1160 kg/ha
  Herbicidal rating SAGPY: 0.0
[7]; rate 0.2310 kg/ha
  Herbicidal rating SAGPY: 0.0
[7]; rate 0.4630 kg/ha
  Herbicidal rating SAGPY: 0.0
[8]; in vivo
  Herbicidal rating ORYSAT (rice tolerance): 0.0
